Measurements: ChEMBL document CHEMBL1201862, “PubChem BioAssay data set” (2004)
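Where inhibition never reached the appropriate level, the endpoint shown equals the highest concentration tested. Otherwise, values were interpolated linearly from a five-concentration, 48-hour dose response in 96-well plates. Here, GI50 denotes the concentration required for 50% inhibition of growth.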 The source made the active and inactive calls. Rule as the data show it: active = GI50 up to about 1.1 µM and inactive = higher.

Columns and labels:
Test in all cases: DTP human tumour cell line panel, 48 h
[1] = test system: OVCAR-4
[2] = test system: IGROV-1
[3] = test system: SK-MEL-5
[4] = test system: SK-MEL-28
[5] = test system: SNB-75
[6] = test system: KM-20L2
[7] = test system: Malme-3M
[8] = test system: CAKI-1
[9] = test system: RXF 393
[10] = test system: A549
[11] = test system: HCT-15
[12] = test system: SN12C
[13] = test system: OVCAR-5
[14] = test system: HOP-92
[15] = test system: MOLT-4
[16] = test system: KM12
[17] = test system: SW-620
[18] = test system: DMS-273
[19] = test system: 786-0
[20] = test system: SR
[21] = test system: NCI-H226
[22] = test system: SK-OV-3
[23] = test system: K562
[24] = test system: HCC 2998
[25] = test system: OVCAR-8
[26] = test system: OVCAR-3
[27] = test system: HCT-116
[28] = test system: LXFL 529
[29] = test system: HT-29
[30] = test system: SK-MEL-2
[31] = test system: COLO 205
[32] = test system: EKVX
[33] = test system: SNB-19
[34] = test system: UACC-257
[35] = test system: UACC-62
[36] = test system: TK-10
[37] = test system: UO-31
[38] = test system: SNB-78
[39] = test system: SF-295
[40] = test system: M19-MEL
[41] = test system: NCI-H23
[42] = test system: SF-268
[43] = test system: RPMI-8226
[44] = test system: U-251
[45] = test system: SF-539
[46] = test system: NCI-H522
[47] = test system: HL-60
[48] = test system: LOX IMVI
[49] = test system: A498
[50] = test system: CCRF-CEM
[51] = test system: NCI-H460
[52] = test system: HOP-62
[53] = test system: DLD-1
[54] = test system: XF498
[55] = test system: ACHN
[56] = test system: M14
[57] = test system: PC-3
[58] = test system: DU-145
[59] = test system: MDA-N
[60] = test system: T47D
[61] = test system: MDA-MB-231
[62] = test system: BT-549
[63] = test system: Hs-578T
[64] = test system: MDA-MB-435
[65] = test system: MCF7
[66] = test system: DMS-114
[67] = test system: NCI/ADR-RES

CC1(C)CCC(=O)c2c(O)ccc(O)c21
GI50 [1]: > 100 µM (inactive)
GI50 [2]: > 100 µM (inactive)
GI50 [3]: > 100 µM (inactive)
GI50 [4]: 39.8 µM (inactive)
GI50 [5]: 23.1 µM (inactive)
GI50 [6]: 83.4 µM (inactive)
GI50 [7]: > 100 µM (inactive)
GI50 [8]: 71.8 µM (inactive)
GI50 [9]: 18.4 µM (inactive)
GI50 [10]: > 100 µM (inactive)
GI50 [11]: 83.9 µM
GI50 [12]: > 100 µM (inactive)
GI50 [13]: > 100 µM (inactive)
GI50 [14]: 15.4 µM (inactive)
GI50 [15]: 41.7 µM (inactive)
GI50 [16]: 83.9 µM (inactive)
GI50 [17]: 48.4 µM (inactive)
GI50 [18]: > 100 µM (inactive)
GI50 [19]: > 100 µM (inactive)
GI50 [20]: > 10 µM (inactive)
GI50 [21]: > 100 µM (inactive)
GI50 [22]: > 100 µM (inactive)
GI50 [23]: 26.1 µM (inactive)
GI50 [24]: > 100 µM (inactive)
GI50 [25]: 91.8 µM (inactive)
GI50 [26]: > 100 µM (inactive)
GI50 [27]: 51.9 µM (inactive)
GI50 [28]: 42.8 µM (inactive)
GI50 [29]: 30.1 µM (inactive)
GI50 [30]: 86.5 µM (inactive)
GI50 [31]: > 100 µM (inactive)
GI50 [32]: > 100 µM (inactive)
GI50 [33]: > 100 µM (inactive)
GI50 [34]: 25.1 µM (inactive)
GI50 [35]: 66.8 µM (inactive)
GI50 [36]: > 100 µM (inactive)
GI50 [37]: > 100 µM (inactive)
GI50 [38]: > 100 µM (inactive)
GI50 [39]: > 100 µM (inactive)
GI50 [40]: > 100 µM (inactive)
GI50 [41]: > 100 µM (inactive)
GI50 [42]: > 100 µM (inactive)
GI50 [43]: 55.3 µM (inactive)
GI50 [44]: > 100 µM (inactive)
GI50 [45]: 77.4 µM (inactive)
GI50 [46]: 55.8 µM (inactive)

C/C(=N\[N+](C)(C)C)C(c1ccccc1)C1(c2ccccc2)C(c2ccccc2)=C1c1ccccc1 (stereo not drawn)
GI50 [1]: > 100 µM (inactive)
GI50 [2]: > 100 µM (inactive)
GI50 [3]: > 100 µM (inactive)
GI50 [47]: > 100 µM (inactive)
GI50 [6]: > 100 µM (inactive)
GI50 [7]: > 100 µM (inactive)
GI50 [8]: > 100 µM (inactive)
GI50 [9]: 22 µM (inactive)
GI50 [10]: > 100 µM (inactive)
GI50 [11]: 36.9 µM
GI50 [12]: > 100 µM (inactive)
GI50 [13]: > 100 µM (inactive)
GI50 [14]: 50.9 µM (inactive)
GI50 [48]: > 100 µM (inactive)
GI50 [15]: > 100 µM (inactive)
GI50 [49]: > 100 µM (inactive)
GI50 [16]: > 100 µM (inactive)
GI50 [17]: > 100 µM (inactive)
GI50 [18]: > 100 µM (inactive)
GI50 [19]: > 100 µM (inactive)
GI50 [21]: 19.4 µM (inactive)
GI50 [22]: > 100 µM (inactive)
GI50 [50]: > 100 µM (inactive)
GI50 [51]: > 100 µM (inactive)
GI50 [23]: > 100 µM (inactive)
GI50 [24]: > 100 µM (inactive)
GI50 [25]: 67.5 µM (inactive)
GI50 [26]: > 100 µM (inactive)
GI50 [27]: > 100 µM (inactive)
GI50 [52]: 33 µM (inactive)
GI50 [29]: > 100 µM (inactive)
GI50 [30]: > 100 µM (inactive)
GI50 [32]: 40.7 µM (inactive)
GI50 [53]: > 100 µM (inactive)
GI50 [33]: > 100 µM (inactive)
GI50 [34]: > 100 µM (inactive)
GI50 [35]: > 100 µM (inactive)
GI50 [54]: 22.6 µM (inactive)
GI50 [36]: 90.2 µM (inactive)
GI50 [37]: 53.1 µM (inactive)
GI50 [38]: 50.5 µM (inactive)
GI50 [39]: 41.1 µM (inactive)
GI50 [40]: > 100 µM (inactive)
GI50 [41]: > 100 µM (inactive)
GI50 [55]: 88.1 µM (inactive)
GI50 [43]: > 100 µM (inactive)
GI50 [44]: 66.1 µM (inactive)
GI50 [56]: > 100 µM (inactive)
GI50 [45]: 37.5 µM (inactive)
GI50 [46]: > 100 µM (inactive)

Cc1[nH]c(=O)[nH]c(=O)c1N(CCF)CCCl [FLUORODOPAN]
GI50 [1]: 353 µM (inactive)
GI50 [2]: 441 µM (inactive)
GI50 [3]: 196 µM (inactive)
GI50 [4]: 420 µM (inactive)
GI50 [57]: 363 µM (inactive)
GI50 [47]: 70.8 µM (inactive)
GI50 [58]: 582 µM (inactive)
GI50 [6]: 359 µM (inactive)
GI50 [7]: 349 µM (inactive)
GI50 [8]: 181 µM (inactive)
GI50 [9]: 219 µM (inactive)
GI50 [10]: 265 µM (inactive)
GI50 [13]: 483 µM (inactive)
GI50 [14]: 109 µM (inactive)
GI50 [49]: 418 µM (inactive)
GI50 [16]: 429 µM (inactive)
GI50 [59]: 409 µM (inactive)
GI50 [19]: 451 µM (inactive)
GI50 [60]: 292 µM (inactive)
GI50 [20]: 79.6 µM (inactive)
GI50 [21]: 560 µM (inactive)
GI50 [22]: 536 µM (inactive)
GI50 [50]: 57.4 µM (inactive)
GI50 [61]: 362 µM (inactive)
GI50 [23]: 244 µM (inactive)
GI50 [24]: 353 µM (inactive)
GI50 [62]: 344 µM (inactive)
GI50 [26]: 442 µM (inactive)
GI50 [63]: 635 µM (inactive)
GI50 [64]: 419 µM (inactive)
GI50 [27]: 439 µM (inactive)
GI50 [52]: 318 µM (inactive)
GI50 [29]: 442 µM (inactive)
GI50 [30]: 432 µM (inactive)
GI50 [31]: 394 µM (inactive)
GI50 [53]: 384 µM (inactive)
GI50 [33]: 316 µM (inactive)
GI50 [34]: 443 µM (inactive)
GI50 [35]: 283 µM (inactive)
GI50 [65]: 256 µM (inactive)
GI50 [36]: 495 µM (inactive)
GI50 [38]: 322 µM (inactive)
GI50 [39]: 284 µM (inactive)
GI50 [41]: 348 µM (inactive)
GI50 [66]: 193 µM (inactive)
GI50 [42]: 290 µM (inactive)
GI50 [55]: 190 µM (inactive)
GI50 [44]: 369 µM (inactive)
GI50 [56]: 381 µM (inactive)
GI50 [67]: 240 µM (inactive)
GI50 [45]: 199 µM (inactive)
GI50 [46]: 143 µM (inactive)
